PubChem BioAssay AID272 (DTP/NCI, 2004)
Values joined by “and” are separate entries in the source; they are usually repeats but may differ in a detail not shown here. Identical values can stand only once. Results filed as inconclusive are left out.

Tested on: Lewis lung carcinoma i.m., BDF1 mice, T/C %
Test: NCI In Vivo Anticancer Drug Screen. Data for tumor model Lewis Lung Carcinoma (intramuscular) in B6D2F1 (BDF1) mice
How it was run: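 Antitumour activity is assessed in transplanted-tumour mice. Endpoint is survival or tumour size, normalised to vehicle-dosed controls (T/C).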

CCc1nc(N)nc(N)c1-c1ccc(Cl)cc1
T/C (endpoint: mean tumor weight, dose: 64.0 mg/kg/injection, schedule: Q01DX009 (ip), vehicle: Klucel (hydroxypropylcellulose) (HPC), higher = larger tumour): 26 % of control | T/C (endpoint: mean tumor weight, dose: 64.0 mg/kg/injection, schedule: Q01DX009 (sc), vehicle: Klucel (hydroxypropylcellulose) (HPC), higher = larger tumour): 41 % of control | T/C (endpoint: mean tumor weight, dose: 64.0 mg/kg/injection, schedule: Q04DX003 (ip), vehicle: Klucel (hydroxypropylcellulose) (HPC), higher = larger tumour): 70 % of control and 93 % of control | T/C (endpoint: mean tumor weight, dose: 64.0 mg/kg/injection, schedule: Q08DX002 (ip), vehicle: Klucel (hydroxypropylcellulose) (HPC), higher = larger tumour): 72 % of control and 81 % of control | T/C (endpoint: mean tumor weight, dose: 128.0 mg/kg/injection, schedule: Q01DX001 (ip), vehicle: Klucel (hydroxypropylcellulose) (HPC), higher = larger tumour): 81 % of control | T/C (endpoint: mean tumor weight, dose: 128.0 mg/kg/injection, schedule: Q01DX001 (oral), vehicle: Klucel (hydroxypropylcellulose) (HPC), higher = larger tumour): 82 % of control | T/C (endpoint: mean tumor weight, dose: 128.0 mg/kg/injection, schedule: Q01DX001 (sc), vehicle: Klucel (hydroxypropylcellulose) (HPC), higher = larger tumour): 50 % of control | T/C (endpoint: mean tumor weight, dose: 128.0 mg/kg/injection, schedule: Q04DX003 (ip), vehicle: Klucel (hydroxypropylcellulose) (HPC), higher = larger tumour): 71 % of control | T/C (endpoint: median survival time, dose: 2.0 mg/kg/injection, schedule: Q06HX008 (ip), vehicle: Klucel (hydroxypropylcellulose) (HPC), higher = longer survival): 92 % of control | T/C (endpoint: median survival time, dose: 4.0 mg/kg/injection, schedule: Q01DX009 (ip), vehicle: Klucel (hydroxypropylcellulose) (HPC), higher = longer survival): 95 % of control | T/C (endpoint: median survival time, dose: 4.0 mg/kg/injection, schedule: Q01DX009 (sc), vehicle: Klucel (hydroxypropylcellulose) (HPC), higher = longer survival): 100 % of control | T/C (endpoint: median survival time, dose: 4.0 mg/kg/injection, schedule: Q06HX004 (ip), vehicle: Klucel (hydroxypropylcellulose) (HPC), higher = longer survival): 107 % of control | T/C (endpoint: median survival time, dose: 4.0 mg/kg/injection, schedule: Q06HX008 (ip), vehicle: Klucel (hydroxypropylcellulose) (HPC), higher = longer survival): 88 % of control and 104 % of control | T/C (endpoint: median survival time, dose: 8.0 mg/kg/injection, schedule: Q01DX001 (sc), vehicle: Klucel (hydroxypropylcellulose) (HPC), higher = longer survival): 104 % of control | T/C (endpoint: median survival time, dose: 8.0 mg/kg/injection, schedule: Q01DX009 (ip), vehicle: Klucel (hydroxypropylcellulose) (HPC), higher = longer survival): 104 % of control | T/C (endpoint: median survival time, dose: 8.0 mg/kg/injection, schedule: Q01DX009 (oral), vehicle: Klucel (hydroxypropylcellulose) (HPC), higher = longer survival): 104 % of control | T/C (endpoint: median survival time, dose: 8.0 mg/kg/injection, schedule: Q04DX003 (ip), vehicle: Klucel (hydroxypropylcellulose) (HPC), higher = longer survival): 94 % of control | T/C (endpoint: median survival time, dose: 8.0 mg/kg/injection, schedule: Q06HX004 (ip), vehicle: Klucel (hydroxypropylcellulose) (HPC), higher = longer survival): 109 % of control | T/C (endpoint: median survival time, dose: 8.0 mg/kg/injection, schedule: Q06HX008 (ip), vehicle: Klucel (hydroxypropylcellulose) (HPC), higher = longer survival): 100 % of control | T/C (endpoint: median survival time, dose: 8.0 mg/kg/injection, schedule: Q06HX012 (ip), vehicle: Klucel (hydroxypropylcellulose) (HPC), higher = longer survival): 107 % of control | T/C (endpoint: median survival time, dose: 8.0 mg/kg/injection, schedule: Q08DX002 (ip), vehicle: Klucel (hydroxypropylcellulose) (HPC), higher = longer survival): 94 % of control | T/C (endpoint: median survival time, dose: 12.5 mg/kg/injection, schedule: Q01DX011 (ip), vehicle: steriod suspending solution, higher = longer survival): 103 % of control | T/C (endpoint: median survival time, dose: 16.0 mg/kg/injection, schedule: Q01DX001 (ip), vehicle: Klucel (hydroxypropylcellulose) (HPC), higher = longer survival): 100 % of control | T/C (endpoint: median survival time, dose: 16.0 mg/kg/injection, schedule: Q01DX001 (sc), vehicle: Klucel (hydroxypropylcellulose) (HPC), higher = longer survival): 96 % of control | T/C (endpoint: median survival time, dose: 16.0 mg/kg/injection, schedule: Q01DX009 (ip), vehicle: Klucel (hydroxypropylcellulose) (HPC), higher = longer survival): 108 % of control | T/C (endpoint: median survival time, dose: 16.0 mg/kg/injection, schedule: Q01DX009 (oral), vehicle: Klucel (hydroxypropylcellulose) (HPC), higher = longer survival): 100 % of control | T/C (endpoint: median survival time, dose: 16.0 mg/kg/injection, schedule: Q01DX009 (sc), vehicle: Klucel (hydroxypropylcellulose) (HPC), higher = longer survival): 109 % of control | T/C (endpoint: median survival time, dose: 16.0 mg/kg/injection, schedule: Q04DX003 (ip), vehicle: Klucel (hydroxypropylcellulose) (HPC), higher = longer survival): 92 % of control and 100 % of control | T/C (endpoint: median survival time, dose: 16.0 mg/kg/injection, schedule: Q06HX008 (ip), vehicle: Klucel (hydroxypropylcellulose) (HPC), higher = longer survival): 98 % of control | T/C (endpoint: median survival time, dose: 32.0 mg/kg/injection, schedule: Q01DX001 (ip), vehicle: Klucel (hydroxypropylcellulose) (HPC), higher = longer survival): 102 % of control | T/C (endpoint: median survival time, dose: 32.0 mg/kg/injection, schedule: Q01DX001 (oral), vehicle: Klucel (hydroxypropylcellulose) (HPC), higher = longer survival): 104 % of control | T/C (endpoint: median survival time, dose: 32.0 mg/kg/injection, schedule: Q01DX001 (sc), vehicle: Klucel (hydroxypropylcellulose) (HPC), higher = longer survival): 104 % of control | T/C (endpoint: median survival time, dose: 32.0 mg/kg/injection, schedule: Q04DX003 (ip), vehicle: Klucel (hydroxypropylcellulose) (HPC), higher = longer survival): 92 % of control | T/C (endpoint: median survival time, dose: 32.0 mg/kg/injection, schedule: Q08DX002 (ip), vehicle: Klucel (hydroxypropylcellulose) (HPC), higher = longer survival): 86 % of control and 102 % of control | T/C (endpoint: median survival time, dose: 64.0 mg/kg/injection, schedule: Q01DX001 (oral), vehicle: Klucel (hydroxypropylcellulose) (HPC), higher = longer survival): 104 % of control | T/C (endpoint: median survival time, dose: 64.0 mg/kg/injection, schedule: Q01DX001 (sc), vehicle: Klucel (hydroxypropylcellulose) (HPC), higher = longer survival): 90 % of control and 100 % of control | T/C (endpoint: median survival time, dose: 64.0 mg/kg/injection, schedule: Q01DX009 (sc), vehicle: Klucel (hydroxypropylcellulose) (HPC), higher = longer survival): 104 % of control | T/C (endpoint: median survival time, dose: 64.0 mg/kg/injection, schedule: Q04DX003 (ip), vehicle: Klucel (hydroxypropylcellulose) (HPC), higher = longer survival): 96 % of control and 109 % of control | T/C (endpoint: median survival time, dose: 128.0 mg/kg/injection, schedule: Q01DX001 (ip), vehicle: Klucel (hydroxypropylcellulose) (HPC), higher = longer survival): 107 % of control | T/C (endpoint: median survival time, dose: 128.0 mg/kg/injection, schedule: Q01DX001 (oral), vehicle: Klucel (hydroxypropylcellulose) (HPC), higher = longer survival): 102 % of control
